Measurements published in PMC10539439 (Pharmacological Reports, 2023).

Assay: Blood pressure, 24-h telemetric method, normotensive rats
Format: in vivo, rat
Conditions: 5 mg/kg
Method: The blood pressure of rats treated with the tested compound was measured for a 24 h period after ip treatment (5 mg/kg b.w.) with a special telemetric system Stellar (TSE-Systems, Germany).
Surgery: The operation was carried out over 30 min under sterile conditions. Rats were anaesthetized with ketamine and xylasine (intramuscular injection: 100 mg/kg and 10 mg/kg). Before surgery and for 7 days after, the animals were also treated with cefuroxime (20 mg/kg/day) via intramuscular injection and ketoprofen (5 mg/kg/day) via ip injection. […] The transmitter was sutured to the peritoneal cavity.
The rats were individually caged for 2 weeks to heal after surgical cut. The animals were then placed in pairs in cages to reduce their isolation stress. Blood pressure was measured: before ip administration of the compounds – time 0 min and 24 h thereafter.

[1] = telemetry, after first administration, time 0, n 6
[2] = telemetry, after first administration, time 0.25, n 6
[3] = telemetry, after first administration, time 0.5, n 6
[4] = telemetry, after first administration, time 0.75, n 6

SMILES: N=C(N)N/N=C/c1c(Cl)cc(O)cc1Cl [4HOGuanabenz]
- diastolic pressure, mean (rat, time 1.25): 78.5 mmHg
- systolic pressure, mean (rat, time 1.25): 107.3 mmHg
- diastolic pressure, mean (rat, time 1.5): 79.75 mmHg
- systolic pressure, mean (rat, time 1.5): 117.5 mmHg
- diastolic pressure, mean (rat, time 1.75): 80.5 mmHg
- systolic pressure, mean (rat, time 1.75): 111.3 mmHg
- diastolic pressure, mean (rat, time 2): 78.75 mmHg
- systolic pressure, mean (rat, time 2): 117.5 mmHg
- diastolic pressure, mean (rat, time 3): 77 mmHg
- systolic pressure, mean (rat, time 3): 109.8 mmHg
- diastolic pressure, mean (rat, time 4): 80.5 mmHg
- systolic pressure, mean (rat, time 4): 117 mmHg
- diastolic pressure, mean (rat, time 5): 81 mmHg
- systolic pressure, mean (rat, time 5): 116.5 mmHg
- diastolic pressure, mean (rat, time 6): 77.5 mmHg
- systolic pressure, mean (rat, time 6): 119.8 mmHg
- diastolic pressure, mean (rat, time 7): 76.25 mmHg
- systolic pressure, mean (rat, time 7): 117.3 mmHg
- diastolic pressure, mean (rat, time 8): 66.75 mmHg
- systolic pressure, mean (rat, time 8): 113.3 mmHg
- diastolic pressure, mean (rat, time 9): 83.5 mmHg
- systolic pressure, mean (rat, time 9): 131.8 mmHg
- diastolic pressure, mean (rat, time 10): 70.75 mmHg
- systolic pressure, mean (rat, time 10): 120.8 mmHg
- diastolic pressure, mean (rat, time 11): 81.5 mmHg
- systolic pressure, mean (rat, time 11): 125.3 mmHg
- diastolic pressure, mean (rat, time 12): 77.25 mmHg
- systolic pressure, mean (rat, time 12): 123.8 mmHg
- diastolic pressure, mean (rat, time 13): 75.75 mmHg
- systolic pressure, mean (rat, time 13): 113 mmHg
- diastolic pressure, mean (rat, time 14): 73.25 mmHg
- systolic pressure, mean (rat, time 14): 113.5 mmHg
- diastolic pressure, mean (rat, time 15): 77.5 mmHg
- systolic pressure, mean (rat, time 15): 113.3 mmHg
- diastolic pressure, mean (rat, time 16): 79.5 mmHg
- systolic pressure, mean (rat, time 16): 121.8 mmHg
- diastolic pressure, mean (rat, time 17): 88.25 mmHg
- systolic pressure, mean (rat, time 17): 124.5 mmHg
- diastolic pressure, mean (rat, time 18): 76 mmHg
- systolic pressure, mean (rat, time 18): 118.5 mmHg
- diastolic pressure, mean (rat, time 19): 76 mmHg
- systolic pressure, mean (rat, time 19): 117.5 mmHg
- diastolic pressure, mean (rat, time 20): 66 mmHg
- systolic pressure, mean (rat, time 20): 108.8 mmHg
- diastolic pressure, mean (rat, time 21): 70.5 mmHg
- systolic pressure, mean (rat, time 21): 103.3 mmHg
- diastolic pressure, mean (rat, time 22): 74.5 mmHg
- systolic pressure, mean (rat, time 22): 110.3 mmHg
- diastolic pressure, mean (rat, time 23): 75.25 mmHg
- systolic pressure, mean (rat, time 23): 116.3 mmHg
- diastolic pressure, mean (rat, time 24): 72.75 mmHg
- systolic pressure, mean (rat, time 24): 109.5 mmHg
- diastolic pressure, mean [1]: 80.5 mmHg
- systolic pressure, mean [1]: 126.2 mmHg
- diastolic pressure, mean [2]: 92.75 mmHg
- systolic pressure, mean [2]: 141 mmHg
- diastolic pressure, mean [3]: 87.5 mmHg
- systolic pressure, mean [3]: 127.3 mmHg
- diastolic pressure, mean [4]: 78 mmHg
- systolic pressure, mean [4]: 115.6 mmHg
